Source: US5886014A, “Benzimidazole derivatives, their preparation and their therapeutic use” (Sankyo Company, Limited, priority 1995, dated 1999)
pIC50: −log10 of the molar value.

Legend:
blood glucose level = test: Hypoglycemic activity in hyperglycemic KK mice (blood glucose level); format: in vivo, male mice of the KK strain; conditions: 1 mg/kg oral, 18 hours, vs solvent-only group
Procedure: The test animals used were hyperglycemic male mice of the KK strain, each having a body weight of at least 40 g. The compounds under test were mixed with a 1:1 by volume mixture of polyethylene glycol 400 and water. Each animal was orally administered a test compound in the amount shown in the following Table 6 and then allowed to feed freely for 18 hours. At the end of this time, blood was collected from the tail veins without anesthesia. The blood glucose level (BGL) was determined by means of a glucose analyzer (GL-101, manufactured by Mitsubishi Kasei Co. or a Glucoroder-F manufactured by Shino Test Co.). The hypoglycemic effect was calculated by the following equation: Hypoglycemic effect (%)=[(BGLs -BGLt)/BGLs ]×100 where: BGLs is the blood glucose level in the group administered a solvent only, but no active compound; and BGLt is the blood glucose level in the group administered a test compound. The results are shown in the following Table 6, in which each compound of the present invention is identified by the number of one of the following Examples in which its preparation is illustrated.

[1] = target: T1, Bovine lens aldose reductase (Bos taurus, UniProt P16116); test: Inhibition of Aldose reductase; format: biochemical; conditions: for inhibition at 5 µg/mL: read-out: Inhibition (%) at 5 μg/ml
T1 construct: Bovine lens aldose reductase was separated and partially purified; from tissue; host or cells: bovine lens
Procedure: Bovine lens aldose reductase was separated and partially purified by the method of S. Hyman and J. H. Kinoshita [J. Biol. Chem. 240, 877 (1965)] and K. Inagaki, I. Miwa and J. Okuda [Arch. Biochem. Biophys., 216, 337 (1982)], and its activity was determined photometrically by the method of Varma et al. [Biochem. Pharmac., 25, 2505 (1976)]. Inhibition of enzyme activity was measured for the compounds of the present invention at a concentration of 5 μg/ml, and the measured values were used to calculate the IC50 values.

Cn1c(COc2ccc(CC3SC(=O)NC3=O)cc2)nc2ccccc21 (centres unmarked) [Example 1, 5-[4-(1-Methylbenzimidazol-2-ylmethoxy)benzyl]thiazolidine-2,4-dione]
Hypoglycemic effect (%) (blood glucose level): 36.2%
pIC50 [1]: 5.68
inhibition at 5 µg/mL [1]: 80.3%

COc1ccc2nc(COc3ccc(CC4SC(=O)NC4=O)cc3)n(C)c2c1 (centres unmarked) [Example 2, 5-[4-(6-Methoxy-1-methylbenzimidazol-2-ylmethoxy)benzyl]thiazolidine-2,4-dione]
Hypoglycemic effect (%) (blood glucose level): 27.2%

Cc1c(O)c(C)c2nc(COc3ccc(CC4SC(=O)NC4=O)cc3)n(C)c2c1C (centres unmarked) [Example 3, 5-[4-(5-Hydroxy-1,4,6,7-tetramethylbenzimidazol-2-ylmethoxy)benzyl]thiazolidine-2,4-dione]
Hypoglycemic effect (%) (blood glucose level): 11.2%
pIC50 [1]: 5.48
inhibition at 5 µg/mL [1]: 79.6%

Cc1c(O)c(C)c2nc(COc3ccc(CC4SC(=O)NC4=O)cc3)n(C)c2c1C.Cl (centres unmarked) [Example 4, 5-[4-(5-Hydroxy-1,4,6,7-tetramethylbenzimidazol-2-ylmethoxy)benzyl]thiazolidine-2,4-dione hydrochloride]
Hypoglycemic effect (%) (blood glucose level): 19.3%
